{
  "source": "a melting point compilation (Tetko et al.)",
  "data": [
    {"units": {"melting point": "°C"}, "values": [
      {"smiles": "COC(=O)c1c(N)sc(C)c1-c1ccc(Cl)cc1Cl", "melting point": "94 to 96"},
      {"smiles": "O=C(O)c1cnc2onc(C3CC3)c2c1", "melting point": "206 to 208"},
      {"smiles": "NC(=O)c1cnn2c(C(=O)O)ccnc12", "melting point": "199 to 201"},
      {"smiles": "CC(c1ccccc1)n1c(S)nnc1-c1ccccc1", "note": "(configuration not stated)", "melting point": "201 to 203"},
      {"smiles": "CC(C)c1nnc(S)[nH]1", "melting point": "156 to 158"},
      {"smiles": "CCOc1ccc2c(c1)CC(C(=O)O)CO2", "note": "(configuration not stated)", "melting point": "132 to 134"},
      {"smiles": "Cc1cccc(-c2noc(S)n2)c1", "melting point": "119 to 121"},
      {"smiles": "NNc1ccc2ccccc2n1", "melting point": "147 to 151"},
      {"smiles": "CN1C(=O)Cc2cc(S)ccc21", "melting point": "104 to 106"},
      {"smiles": "O=CC(C=O)SCc1ccccc1", "melting point": "128 to 130"},
      {"smiles": "N#Cc1ccc(Cl)c(N)c1", "melting point": "87 to 91"},
      {"smiles": "Cc1ccc(OCCCC(=O)Nc2ccc(CN)cc2)cc1", "melting point": "97 to 99"},
      {"smiles": "CC12CCCC(C(=O)O)(CCC1)C2", "melting point": "144 to 146"},
      {"smiles": "Oc1ccc(CNCc2ccco2)cc1", "melting point": "107 to 109"},
      {"smiles": "Cc1nc2c(cnn2-c2cccc(Cl)c2)c(=O)[nH]1", "melting point": "114 to 116"},
      {"smiles": "N#Cc1ccc(N2CCNC(=O)C2)cc1", "melting point": "224 to 226"},
      {"smiles": "CN(C)S(=O)(=O)c1cc(C(=O)O)ccc1Cl", "melting point": "239 to 241"},
      {"smiles": "N#CC1=C(N)N2Cc3ccccc3CC2C1=O", "note": "(configuration not stated)", "melting point": "307 to 309"},
      {"smiles": "COc1ccc(C(=O)O)cc1S(=O)(=O)NC1CCCC1", "melting point": "216 to 218"},
      {"smiles": "O=C(O)c1ccc(NS(=O)(=O)c2ccc(Cl)c([N+](=O)[O-])c2)cc1O", "melting point": "242 to 244"},
      {"smiles": "c1cnc(N2CCN(c3ncccn3)CC2)nc1", "melting point": "144 to 146"},
      {"smiles": "Oc1c(Cl)c(F)nc(F)c1Cl", "melting point": "102 to 104"},
      {"smiles": "O=C(c1ccc(Cl)cc1)N1CCNCC1", "melting point": "80 to 82"},
      {"smiles": "Nc1ccccc1NC(=O)c1ccncc1", "melting point": "179 to 181"},
      {"smiles": "COC(=O)Nc1ccccc1C(=O)O", "melting point": "177 to 179"},
      {"smiles": "CC(C)NC(=O)CN1CCCNCC1", "melting point": "43 to 45"},
      {"smiles": "CC(=O)N(CCC#N)C(C)C", "melting point": "59 to 61"},
      {"smiles": "O=C(NC1CC1)c1cccc(O)c1", "melting point": "157 to 159"},
      {"smiles": "O=S1(=O)CC(O)C(NCc2ccco2)C1", "note": "(configuration not stated)", "melting point": "139 to 141"},
      {"smiles": "Nc1cc(-c2cc(Cl)cc(Cl)c2)no1", "melting point": "132 to 134"},
      {"smiles": "O=C(O)c1ccc(OCC(F)(F)F)nn1", "melting point": "143 to 145"},
      {"smiles": "COCc1ccc(C(=O)O)cc1OC", "melting point": "164 to 166"},
      {"smiles": "NS(=O)(=O)c1ccc(NC(=O)OCC(F)(F)F)cc1", "melting point": "192 to 194"},
      {"smiles": "Sc1nc2c(s1)CCCC2", "melting point": "119 to 121"},
      {"smiles": "NC(=S)c1cccc(NC(=O)C2CC2)c1", "melting point": "181 to 183"},
      {"smiles": "Nc1nc(C2CC2)ns1", "melting point": "144 to 146"},
      {"smiles": "N#Cc1ccccc1COc1cccc(C(=O)O)c1", "melting point": "181 to 183"},
      {"smiles": "O=C(O)Cn1cc(Br)ccc1=O", "melting point": "239 to 241"},
      {"smiles": "CC(=O)Oc1ccc(CCl)cc1", "melting point": "29 to 31"},
      {"smiles": "NC(=O)c1cc(OC2CCNCC2)ccn1", "melting point": "129 to 131"},
      {"smiles": "CC1COCCN1c1ccc(N)cc1", "note": "(configuration not stated)", "melting point": "89 to 91"},
      {"smiles": "O=C(O)CN1C(=O)c2ccc([N+](=O)[O-])cc2C1=O", "melting point": "197 to 199"},
      {"smiles": "CSC=CC(=O)O", "melting point": "118 to 120"},
      {"smiles": "O=C(c1cccc(S(=O)(=O)Cl)c1)N1CCCC1", "melting point": "65 to 67"},
      {"smiles": "Cn1cc(C=O)c(-c2ccc([N+](=O)[O-])cc2)n1", "melting point": "175 to 177"},
      {"smiles": "CC(C)c1noc(-c2ccccc2C(=O)O)n1", "melting point": "141 to 143"},
      {"smiles": "NNc1ccc2cccc(O)c2n1", "melting point": "156 to 158"},
      {"smiles": "NS(=O)(=O)c1ccc(C(=O)O)nc1", "melting point": "194 to 196"},
      {"smiles": "COc1ccccc1S(N)(=O)=O", "melting point": "169 to 171"},
      {"smiles": "Cc1[nH]ncc1CNc1ccc(O)cc1", "melting point": "150 to 152"},
      {"smiles": "N#CC=Cc1cccnc1", "melting point": "104 to 106"},
      {"smiles": "Nc1onc(-c2ccco2)c1-c1ccc2c(c1)OCO2", "melting point": "138 to 140"},
      {"smiles": "N#CC1COCCN1", "note": "(configuration not stated)", "melting point": "76 to 78"},
      {"smiles": "O=C(O)C1CCCCC1c1nc2cc(Cl)ccc2[nH]1", "note": "(configuration not stated)", "melting point": "199 to 201"},
      {"smiles": "OC(c1c(Cl)cccc1Cl)C1CCOCC1", "note": "(configuration not stated)", "melting point": "106 to 108"},
      {"smiles": "NCCCNC(=O)c1cccc(O)c1", "melting point": "136 to 138"},
      {"smiles": "O=C1CC2CCCN2c2ccccc2N1", "note": "(configuration not stated)", "melting point": "139 to 141"},
      {"smiles": "CNC(c1ccc(Cl)cc1)c1cccnc1", "note": "(configuration not stated)", "melting point": "44 to 46"},
      {"smiles": "CCn1c(S)nnc1-c1ccc(Cl)cc1", "melting point": "211 to 213"},
      {"smiles": "NNC(=O)C1CC1", "melting point": "92 to 94"},
      {"smiles": "COC(=O)c1cccc(CC(=O)O)c1", "melting point": "74 to 76"},
      {"smiles": "O=Cc1ccc(Oc2cnccn2)cc1", "melting point": "79 to 81"},
      {"smiles": "O=Cc1cccc(OC(F)(F)C(=O)O)c1", "melting point": "64 to 66"},
      {"smiles": "O=C(O)c1ccccc1N1CCCC1=O", "melting point": "197 to 199"},
      {"smiles": "O=[N+]([O-])c1ccc(OC2CCNCC2)cc1", "melting point": "97 to 99"},
      {"smiles": "c1nc(N2CCNCC2)c2ccsc2n1", "melting point": "71 to 73"},
      {"smiles": "Nc1ccc(CC(=O)N2CCN(c3ncccn3)CC2)cc1", "melting point": "193 to 195"},
      {"smiles": "CCNC(=O)Nc1cccc([N+](=O)[O-])c1", "melting point": "141 to 143"},
      {"smiles": "NS(=O)(=O)c1cnn(CCC(=O)O)c1", "melting point": "126 to 128"},
      {"smiles": "Nc1cc2c(cc1[N+](=O)[O-])OCCCO2", "melting point": "73 to 77"},
      {"smiles": "O=[N+]([O-])c1cc(Cl)cc(Br)c1O", "melting point": "126 to 128"},
      {"smiles": "O=C(CN1CCCC(C(=O)O)C1)Nc1ccccc1", "note": "(configuration not stated)", "melting point": "100 to 102"}
    ]}
  ]
}
